The test system of this experiment is miR-34b, miR-132, miR-137, miR-193a, and miR-203 genes in oral squamous-cell carcinoma cell lines. In words: Real-time RT-PCR of candidate miRNA gene expression after treatment with demethylating reagent. It is filed as cell-based. An excerpt: The miRNA expression levels were compared in terms of relative value based on the RNU6B expression level as an internal control. Stars represent 21 types of miRNA genes located on or around the CpG islands. […] A bar graph representing each cell line represents a comparison of expression levels in the RT7 cells and in each cell line. […] A bar graph representing each cell line indicates a comparison of expression levels in untreated cells and in treated cells. […] Asterisks (*) represent a frequency of oral squamous-cell carcinoma cell lines in which recovery of candidate miRNA expression (expression levels of more than 1.5-fold) was observed by comparing untreated cells with cells that have been treated with 10 μM 5-aza-dCyd.
In order to inspect whether or not expression of these 5 types of miRNA genes was suppressed by DNA methylation, oral squamous-cell carcinoma cell lines in which these 5 types of miRNA genes had not been expressed were treated with 1 μM and 10 μM demethylating reagents (5-aza-dCyd) for 5 days. RNA was extracted from these cell lines and expression of candidate miRNA genes was inspected via real-time RT-PCR (FIG. 1D).
For orientation: Real-time PCR tracks product formation cycle by cycle.

Consider `Nc1ncn([C@H]2C[C@H](O)[C@@H](CO)O2)c(=O)n1` [5-aza-dCyd, 5-aza-2′-deoxycytidine], for which the “recovery of candidate miRNA gene expression” value (1 μM and 10 μM for 5 days, OSCC cell lines in which the 5 miRNA genes had not been expressed) was “expression of these genes was found to be recovered”. The “demethylation of CpG islands near the miRNA genes” value (oral squamous-cell carcinoma cells cultured in the presence of the demethylating reagent) is reported as “possible to demethylate such CpG islands”.

Values taken from patent publication US20110076768A1, “METHOD FOR DETECTING CARCINOMA AND AGENT FOR SUPPRESSING CARCINOMA” (priority 2008, published 2011).
